Results on one compound are retold here after BindingDB's records for patent US12509424 (Nippon Shinyaku, 2025).

For this test, the target named is Platelet-derived growth factor receptor beta (Homo sapiens, UniProt P09619). Kind of test: PDGFR-β Tyrosine Kinase Inhibitory Action. The protocol: This DMSO solution was diluted by 8 times with an assay buffer 1 (50 mM HEPES (pH 7.0), 0.02% NaN3, 0.01% Bovine Serum Albumin, 0.1 mM orthovanadate, 1 mM Dithiothreitol, 5 mM MgCl2, and 1 mM MnCl2) and further diluted by 5 times with an assay buffer 2 (50 mM HEPES (pH 7.0), 0.02% NaN3, 0.01% Bovine Serum Albumin, 0.1 mM orthovanadate, 1 mM Dithiothreitol, 5 mM MgCl2, 1 mM MnCl2, and 40 nM Supplemented Enzymatic Buffer (cisbio)).2. Measurement of PDGFR-β Tyrosine Kinase Inhibitory ActionFor the measurement, the HTRF KinEASE-TK kit from Cisbio Bioassays SAS was used. To a 384 well plate, the test substance solution was added at 4 μL each, then 2 μL of a PDGFR-β enzyme solution (final concentration of 1 ng/μL, Carna Biosciences, Inc.) and 4 μL of a substrate solution obtained by adding 0.6 μM ATP to TK substrate-3-biotin (cisbio) were added, and the solution was allowed to react at 30° C. for 30 minutes at a final concentration of the test substance being 0.01 to 10,000 nM.Thereafter, 10 μL of a detection solution (cisbio) was added to each well and allowed to react at 30° C. for 1 hour. The fluorescence intensity was measured with a microplate reader (Spectra Max M5, Molecular device).
Platelet-derived growth factor receptor beta, sequence (P09619 whole entry): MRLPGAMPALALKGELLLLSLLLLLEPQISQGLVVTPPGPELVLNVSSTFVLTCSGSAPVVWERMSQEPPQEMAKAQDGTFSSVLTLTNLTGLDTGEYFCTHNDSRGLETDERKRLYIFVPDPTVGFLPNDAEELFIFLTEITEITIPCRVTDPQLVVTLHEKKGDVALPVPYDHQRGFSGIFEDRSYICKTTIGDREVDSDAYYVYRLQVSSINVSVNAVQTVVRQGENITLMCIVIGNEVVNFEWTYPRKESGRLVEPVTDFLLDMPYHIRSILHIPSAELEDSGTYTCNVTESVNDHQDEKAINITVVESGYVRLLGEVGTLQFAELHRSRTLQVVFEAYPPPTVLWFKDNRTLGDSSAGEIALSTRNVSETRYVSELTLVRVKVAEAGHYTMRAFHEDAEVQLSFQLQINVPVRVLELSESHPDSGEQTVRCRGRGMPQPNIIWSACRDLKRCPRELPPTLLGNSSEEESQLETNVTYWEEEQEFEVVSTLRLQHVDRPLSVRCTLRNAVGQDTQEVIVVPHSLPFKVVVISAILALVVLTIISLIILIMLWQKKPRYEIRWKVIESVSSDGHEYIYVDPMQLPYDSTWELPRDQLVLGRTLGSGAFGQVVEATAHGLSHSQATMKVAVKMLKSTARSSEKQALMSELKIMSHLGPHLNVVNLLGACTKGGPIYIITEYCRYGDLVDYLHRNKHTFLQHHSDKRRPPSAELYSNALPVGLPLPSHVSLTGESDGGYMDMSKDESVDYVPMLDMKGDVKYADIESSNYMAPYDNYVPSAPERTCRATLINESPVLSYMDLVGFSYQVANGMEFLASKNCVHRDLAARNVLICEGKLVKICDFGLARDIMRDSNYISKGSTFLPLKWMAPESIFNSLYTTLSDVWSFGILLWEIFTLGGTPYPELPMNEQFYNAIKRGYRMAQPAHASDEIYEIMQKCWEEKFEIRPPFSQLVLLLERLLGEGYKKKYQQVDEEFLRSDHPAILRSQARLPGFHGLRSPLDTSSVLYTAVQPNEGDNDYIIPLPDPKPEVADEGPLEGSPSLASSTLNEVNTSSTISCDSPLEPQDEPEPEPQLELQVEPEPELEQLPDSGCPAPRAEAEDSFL

Usually IC50 stands for the concentration that gives 50% inhibition. The low end stands for greater potency, the high end for weaker potency.

`CC(=O)Nc1ccc(CNc2cc(C(=O)N[C@H]3CCCC[C@@H]3O)ccc2C)cn1` [US12509424, Example 116] showed an IC50 of 66 nM.
